# Legend:
# [1] = tested on: cancer cell strains DU145, HT29, HCC2998, MKN7, MDA-MB-231, MCF-7; experiment: Intracellular and extracellular PpIX amount in cancer cell strains, ALA plus serial dilutions of inhibitor (Examples 1, 3, 4, 5); assay type: cell-based; conditions: in combination with 1 mM ALA; for extracellular PpIX amount (corrected with amount of protein) / intracellular PpIX amount (corrected with amount of protein): cultured 4 hours, compared to ALA alone, six cancer cell strains
# Description: Six types of cells strains were employed as cancer cell strains: […], large intestine cancer cell strains (HT29, HCC2998), stomach cancer cell strain (MKN7), and mammary gland cancer cell strains (MDA-MB-231, MCF-7). For the medium, RPMI 1640 (from Wako) supplemented with 5% inactivated fetal bovine serum (FBS, from Biowest) was employed (hereinafter referred to as RPMI medium). Two types of inhibitors are known to exist for dynamin: one is an inhibitor that targets the GAS domain, whereas the other is an inhibitor that targets the PH domain. Iminodyn22 (from abcam) was used as the inhibitor that targets the GAS domain. Further, OcTMAB (from abcam) was used as the inhibitor that targets the PH domain.
# To 1 mg of OcTMAB was added 255 μL of dimethyl sulfoxide (DMSO, from Wako), and this was mixed to make an OcTMAB 10 mM stock solution. Further, to 1 mg of Iminodyn22 was added 208 μL of DMSO, and this was mixed to make an Iminodyn22 10 mM stock solution. The OcTMAB 10 mM stock solution was diluted with the RPMI medium to adjust to 16 μM. The Iminodyn22 10 mM stock solution was diluted with the RPMI medium to adjust to 40 μM. The OcTMAB and Iminodyn22 prepared were each serially diluted with the RPMI medium to create six serial dilutions. Each of these dynamin inhibitor-containing medium was mixed with an equal amount of the RPMI medium comprising 2 mM aminolevulinic acid hydrochloride salt (ALA) to prepare ALA/OcTMAB and ALA/Iminodyn22-containing mediums.
# Each cancer cell strain was seeded in a 96-well plate (black with transparent bottom; from Corning) at a density of 1.25×10^4 cells/well (only MDA-MB-231 was seeded at 2.0×10^4 cells/well), and this was cultured overnight at 37° C. After the overnight culture, the culture supernatant was removed, 200 μL each of ALA/OcTMAB-containing medium or ALA/Iminodyn22-containing medium described above were added to each well, and this was cultured for 4 hours under a 37° C. condition. After 4 hours, 100 μL of each culture supernatant were transferred to another 96-well plate, and this was set as the extracellular PpIX measuring plate. The remaining culture supernatant was removed, each cell strain was washed once with phosphate buffered saline (PBS, from Wako), and then 100 μL per well of 1% dodecyl sodium sulfate (SDS, from Wako) aqueous solution was added to dissolve the cells, and this was set as the intracellular PpIX measuring plate. Protoporphyrin IX standard sample (PpIX, from Funakoshi Co., Ltd.) was dissolved in DMSO solution to create 1 mM PpIX stock solution. The 1 mM PpIX stock solution was diluted with each of 1% SDS solution and RPMI medium, and PpIX standard solutions with final concentrations of 0-1000 nM were prepared. The PpIX standard solutions prepared with 1% SDS were added to unused wells in the intracellular accumulation PpIX measuring plate, and the standard solutions prepared with the RPMI medium were added to unused portions of the extracellular export PpIX measuring plate at 100 μL each. The fluorescence intensity of the intracellular PpIX measuring plate and the extracellular PpIX measuring plate was measured with a microplate reader (infinite M200PRO; from TECAN) under the condition of excitation light at 405 nm and measurement wavelength at 635 nm. After measurement, a standard curve was created from the fluorescence intensity of the PpIX standard solutions, and the amount of PpIX in each well was calculated from the standard curve.
# In order to correct the amount of PpIX measured by the above method with the amount of protein, the amount of protein contained in each sample of the intracellular PpIX measuring plate was measured. Pierce™ BCA Protein Assay Kit (from Thermo Fisher) was used for measuring the amount of protein. BCA reagent A and BCA reagent B were mixed at a proportion of 50:1 to prepare the BCA reaction solution. […]
# [2] = tested on: cancer cell strains DU145, HT29, HCC2998, MKN7, MDA-MB-231, MCF-7; experiment: Intracellular and extracellular PpIX amount, combination use of OcTMAB and FTC with ALA (Example 2); assay type: cell-based; conditions: final concentration ALA 1 mM, OcTMAB 8 μM, FTC 10 μM, 4 hours; compared between combination use groups
# Description: Six types of cells strains were employed as cancer cell strains: […], large intestine cancer cell strains (HT29, HCC2998), stomach cancer cell strain (MKN7), and mammary gland cancer cell strains (MDA-MB-231, MCF-7). Fumitremorgin C (FTC, from sigma) was dissolved in DMSO to create a 2 mM stock solution, and then adjusted to 40 μM with the RPMI medium. For OcTMAB, the 10 mM stock solution was adjusted with the RPMI medium to 32 μM. The 40 μM FTC-containing RPMI medium was added to an equal amount of 32 μM OcTMAB-containing medium to prepare a 16 μM OcTMAB/20 μM FTC-containing medium. Note that FTC is an inhibitor of ABCG2 (a transporter that extracellularly exports PpIX), and is known as a compound that has the effect of inhibiting extracellular export of PpIX.
# Each cancer cell strain was seeded in a 96-well plate (black with transparent bottom) at a density of 1.25×10^4 cells/well (only MDA-MB-231 was seeded at 2.0×10^4 cells/well), and this was cultured overnight at 37/C. After the overnight culture, the culture supernatant was removed, 100 μL each of 2 mM ALA-containing RPMI medium was added to each well. […]
# In order to correct the above PpIX amount measurement result with the amount of protein, the amount of protein in each sample for measuring the intracellular PpIX amount was measured. […]
# [3] = cited from earlier work
SMILES,extracellular PpIX amount (corrected with amount of protein) [1],intracellular PpIX amount (corrected with amount of protein) [1],extracellular PpIX amount (PpIX extracellular export) [2],intracellular PpIX amount [2],inhibitor concentration at which the decrease of extracellular PpIX amount peaks ([1]; 4 hours) [µM],inhibitor concentration at which the increase in the amount of PpIX accumulated peaks ([1]; 4 hours) [µM],time until metabolized in vivo and excreted [3] [h]
CCCCCCCCCCCCCCCCCC[N+](C)(C)C.[Br-] [OcTMAB],decrease of extracellular PpIX amount dependent on the concentration of OcTMAB,increase of intracellular PpIX amount dependent on the concentration of OcTMAB,effect similar to ETC for suppressing PpIX extracellular export,increased intracellular PpIX similar to or more than the ALA and ETC combination use group,,,
O=c1[nH]c2ccccc2n1C1CCN(Cc2ccc(-c3nc4cc5nc[nH]c5cc4nc3-c3ccccc3)cc2)CC1 [Akt inhibitor VIII],decrease of extracellular PpIX amount,increase in the amount of PpIX accumulated,,,~5,~5,
N=c1oc2c(O)c(O)ccc2cc1C(=O)NCCCNC(=O)c1cc2ccc(O)c(O)c2oc1=N [iminodyn22],no change in the intracellular and extracellular PpIX amounts,no change in the intracellular and extracellular PpIX amounts,,,,,
CCCCCCCCCCCCCC[N+](C)(C)C.[Br-] [MiTMAB],decrease of extracellular PpIX amount dependent on the concentration of MiTMAB,increase of intracellular PpIX amount dependent on the concentration of MiTMAB,,,,,
"NCC(=O)CCC(=O)O [ALA, 5-aminolevulinic acid]",,,,,,,≤ 48
CCCCCCCCCCCCCCCCCC[N+](C)(C)CCN1C(=O)[C@@H]2[C@H](C1=O)[C@H]1CC[C@@H]2O1.[Br-] [RTIL13],decrease of extracellular PpIX amount dependent on the concentration of RTIL13,increase in the amount of PpIX accumulated,,,,~10,
